In patent publication US6440935B1, “Inhibition of eucaryotic pathogens and neoplasms and stimulation of fibroblasts and lymphocytes with lytic peptides” (priority 1987, dated 2002):
Read-outs that look alike come from different tables or passages of the source. Residues, ends and D or L forms follow the SMILES beside them.

How the values were obtained:
[1] = Viability by trypan blue exclusion, U937 cells; assay type: cell-based, human
Method: EL-4 lymphoma cells were suspended in RPMI 1640 at 5,000,000/ml with 500,000 cells per well. Various concentrations of cecropin SB-37 and Shiva 1 were added and the wells incubated at 37° C. in a 5% CO2 atmosphere for one hour. Viability was determined by microscopic observation for trypan blue exclusion.
This procedure was repeated with 100 μM cecropin SB-37 using non-adherent normal human lymphocytes, Daudi human Burkitt's lymphoma cells, KG-1 human leukemia cells, U937 human monocytic leukemia cells, and SP2 murine myeloma cells, and determining viability by the trypan blue exclusion method at 15, 30 and 60 minutes following addition of the peptide.

[2] = test system: adherent 3T3 human fibroblasts; assay: Viability by trypan blue exclusion, 3T3 fibroblasts; assay type: cell-based
[3] = EL-4 cytotoxicity by chromium release; assay type: cell-based; details: for cytotoxicity at 100 µM: read-out: Percent Cytotoxicity
Method: The EL-4 cells were then incubated for 30 minutes in the presence of various peptides at different concentrations. Cytotoxicity was taken as a percentage of chromium released (measured in the culture supernatant) relative to the chromium released by EL-4 cells lysed by detergent.
Similar chromium release data were obtained using the same procedure with a 100 μM concentration of peptide, but with EL-4 cell concentrations of 2×10^6, 10^6, and 5×10^5 cells in 0.5 ml medium.
The chromium release data was also obtained by using the supernatant from unlabeled EL-4 cells cultured for 30 minutes in the presence of 100 μM peptide as medium for […] EL-4 cultured as described above. The percent cytotoxicity calculated as described above was 20.16 for cecropin SB-37, 19.73 for *cecropin SB-37, 41.96 for Shiva 1, and 106.67 for melittin.

CC[C@H](C)[C@H](NC(=O)CNC(=O)[C@H](CC(N)=O)NC(=O)[C@H](CCCNC(=N)N)NC(=O)[C@@H](NC(=O)[C@H](CC(N)=O)NC(=O)[C@H](CCCNC(=N)N)NC(=O)CNC(=O)[C@H](CCSC)NC(=O)[C@H](CCCCN)NC(=O)[C@H](CCC(=O)O)NC(=O)[C@@H](NC(=O)[C@H](CCCCN)NC(=O)[C@H](CCCCN)NC(=O)[C@H](Cc1ccccc1)NC(=O)[C@@H](NC(=O)[C@H](CCCCN)NC(=O)[C@H](Cc1c[nH]c2ccccc12)NC(=O)[C@H](CCCCN)NC(=O)[C@@H]1CCCN1C(=O)[C@@H](N)CCSC)C(C)C)[C@@H](C)CC)[C@@H](C)CC)C(=O)N[C@H](C(=O)N[C@@H](CCCCN)C(=O)N[C@@H](C)C(=O)NCC(=O)N1CCC[C@H]1C(=O)N[C@@H](C)C(=O)N[C@H](C(=O)N[C@@H](C)C(=O)N[C@H](C(=O)N[C@@H](CC(C)C)C(=O)NCC(=O)N[C@@H](CCC(=O)O)C(=O)N[C@@H](C)C(=O)N[C@@H](CCCCN)C(=O)N[C@@H](C)C(=O)N[C@@H](CC(C)C)C(=O)NCC(N)=O)C(C)C)[C@@H](C)CC)C(C)C [Cecropin SB-37] (H-MPKWKVFKKIEKMGRNIRNGIVKAGPAIAVLGEAKALG-NH2)
viability at 100 µM ([1]; 15 min.): 35%
viability at 100 µM ([1]; 30 min.): 25%
viability at 100 µM ([1]; 60 min.): 15%
Survival (percent) ([2]; 50 μM): 80%
Survival (percent) ([2]; 100 μM): 80%
cytotoxicity at 100 µM ([3]; 2 × 10^6 cells per 0.5 ml): 93.8%
cytotoxicity at 100 µM ([3]; 5 × 10^5 cells per 0.5 ml): 99.6%
cytotoxicity at 100 µM ([3]; 10^6 cells per 0.5 ml): 89.2%
cytotoxicity ([3]; supernatant from unlabeled EL-4 cells cultured 30 minutes with 100 μM peptide used as medium for labeled EL-4, read-out: percent cytotoxicity): 20.2%
